Experimental data: patent US12416052B2, “Capturing, concentrating, and detecting microbes in a sample using magnetic ionic liquids and recombinase polymerase amplification” (priority 2019, dated 2025)
Several values for one entry are separate records, joined by “and”; a condition that tells them apart may be missing. Equal entries are not always repeated.

Experiments:
E. amylovora Ea935 = assay: MIL-based whole-cell extraction; set-up: species or system Erwinia amylovora; conditions: EF determined using Columbia Agar
Method: (§1) A universal schematic for MIL-based cell extraction is depicted in FIG. 7B. A 1 mL volume of diluted cell suspension was added to a flat-bottomed 4-mL screw cap glass vial. Fifteen microliters of either the Ni(II) or Dy(III) MIL was added and dispersed into microdroplets by vortex agitation for 30 s. The aqueous phase was decanted following dispersive extraction, and the MIL was subjected to a brief wash step using 1 mL of nuclease-free water (Integrated DNA Technologies, Coralville, IA, USA) to ensure adequate removal of loosely or incidentally bound cells. […]
(§2) Following back-extraction, aliquots of the cell-enriched back-extraction medium were serially diluted in 0.1% peptone water and a 10 μL aliquot of each dilution was applied to a separate lane on square plates containing an appropriate agar medium. […] Colonies were counted and colony forming units (CFU) were determined. The enrichment factor (EF) for MIL-based extraction was calculated using Equation 1, where CMIL represents the concentration of bacteria in suspension following extraction using the MIL and CS is the initial concentration of bacteria in the sample.

Density of MIL = assay type: physicochemical
P. eucalypti 299R = assay: MIL-based whole-cell extraction; set-up: species or system Pantoea eucalypti; conditions: EF determined using Columbia Agar
Method: as §1, §2

[1] = test system: S. enterica subsp. arizonae; assay type: cell-based, Salmonella enterica; set-up: key to Relative Affinity for MIL: +++++: higher losses during wash step are due to lower cellular affinity for the MIL; ++++: higher losses during wash step are due to lower cellular affinity for the MIL; +++: higher losses during wash step are due to lower cellular affinity for the MIL; ++: higher losses during wash step are due to lower cellular affinity for the MIL; +: higher losses during wash step are due to lower cellular affinity for the MIL
Method: (§3) A universal schematic for MIL-based cell extraction is depicted in FIG. 7B. A 1 mL volume of diluted cell suspension was added to a flat-bottomed 4-mL screw cap glass vial. Fifteen microliters of either the Ni(II) or Dy(III) MIL was added and dispersed into microdroplets by vortex agitation for 30 s. The aqueous phase was decanted following dispersive extraction, and the MIL was subjected to a brief wash step using 1 mL of nuclease-free water (Integrated DNA Technologies, Coralville, IA, USA) to ensure adequate removal of loosely or incidentally bound cells. After washing, release of viable cells from the MIL extraction phase was carried out using a “back-extraction” step accomplished through addition of 1 mL of an ionically-rich nutritive medium comprised of 20 g L^−1 tryptone and 10 g L^−1 NaCl, followed by a 120 s vortex step. After back-extraction, aliquots of the cell-enriched back-extraction medium were enumerated using the track dilution method using 100×100 mm square, gridded TSA, BSA, CA or VRBGA plates.
(§4) Following back-extraction, aliquots of the cell-enriched back-extraction medium were serially diluted in 0.1% peptone water and a 10 μL aliquot of each dilution was applied to a separate lane on square plates containing an appropriate agar medium. The plates were then tilted at an approximately 80° angle for 15 min to allow the droplets to travel toward the opposite end of the plate. The plates were incubated for 24 h at 37° C. (TSA, VRBGA), for 48 h at 37° C. (BSA) or for 24 h at 37° C. (CA). Colonies were counted and colony forming units (CFU) were determined. The enrichment factor (EF) for MIL-based extraction was calculated using Equation 1, where CMIL represents the concentration of bacteria in suspension following extraction using the MIL and CS is the initial concentration of bacteria in the sample.
(§5) In order to explore the broader utility of our approach, evaluation of additional cell types is needed. We began this extended evaluation of the Ni(II) MIL with seven representative DNA subgroups of Salmonella and eight strains of E. coli O157:H7. Briefly, a 1 mL aliquot of TSB was inoculated with 1×10^6 CFU mL^−1 of bacteria, and spiked with 15 μL of the Ni(II) MIL. MIL-based extraction was performed and 10 μL aliquots of the back-extraction solution were enumerated using TSA and BSA plates (Salmonella) or TSA plates (E. coli O157:H7). […] We later determined that VRBGA was a suitable common medium for this purpose and used this in our statistical analysis. Average CFU counts were compared to standards that were not exposed to the Ni(II) MIL. Enrichment factors were calculated for Salmonella on both non-selective (TSA) and selective agars (BSA) and for E. coli O157:H7 on non-selective agar (TSA). […] Note: As BSA is a Salmonella-specific agar E. coli O157:H7 was not plated to BSA in this example.
(§6) Although all of the strains assessed were capable of being enriched by the MIL, some species were physically enriched to greater extents than others with extraction. In order to further examine the cause for this finding, the number of captured cells lost to the wash solution was investigated. The wash step is performed after the MIL enrichment step in order to remove any incidentally-adsorbed bacteria prior to back-extraction. It is hypothesized that the cells with lower enrichment factors have lower affinities for the MIL and are therefore lost in greater number to the wash solution than those having higher enrichment factors. […] The percent-loss during the wash step ranged from 47-79%. […] EF data from Table 4 for three overlapping Salmonella strains are superimposed to highlight trends in percent-loss, relative affinity and EF.

[2] = test system: S. enterica subsp. diarizonae; assay type: cell-based, Salmonella enterica; set-up: key to Relative Affinity for MIL: +++++: higher losses during wash step are due to lower cellular affinity for the MIL; ++++: higher losses during wash step are due to lower cellular affinity for the MIL; +++: higher losses during wash step are due to lower cellular affinity for the MIL; ++: higher losses during wash step are due to lower cellular affinity for the MIL; +: higher losses during wash step are due to lower cellular affinity for the MIL
Method: as §3, §4, §5, §6

K. aerogenes ATCC 29940 = assay: MIL-based whole-cell extraction; set-up: species or system Klebsiella aerogenes; conditions: EF determined using Tryptic Soy Agar
Method: as §1, §2

[3] = 1×10^6 CFU mL^−1 in TSB, 15 μL MIL

Compound: CCCCCCCCCCCCCC[P+](CCCCCC)(CCCCCC)CCCCCC.O=C([CH-]C(=O)C(F)(F)F)C(F)(F)F.O=C([CH-]C(=O)C(F)(F)F)C(F)(F)F.O=C([CH-]C(=O)C(F)(F)F)C(F)(F)F.[Ni+2] [Ni(II) MIL, [P66614^+][Ni(hfacac)3^−]]
- Enrichment Factor (E. amylovora Ea935): 10
- density (Density of MIL): ~1.3 g/mL
- Enrichment Factor (P. eucalypti 299R): 169
- Relative Affinity for MIL [1]: +
- Enrichment Factor (BSA) [1, 3]: 2 and 4
- Enrichment Factor (TSA) [1, 3]: 3
- Percent-Loss ([1]; cells lost to wash solution): 79 ± 1%
- Relative Affinity for MIL [2]: +++++
- Enrichment Factor (BSA) [2, 3]: 11
- Enrichment Factor (TSA) [2, 3]: 7
- Percent-Loss ([2]; cells lost to wash solution: wash counts / (wash + back-extraction counts) × 100): 47 ± 7%
- Enrichment Factor (K. aerogenes ATCC 29940): 71
